# Laboratory results published in patent US20080318945A1, “Novel Compounds” (priority 2005, published 2008).
# How the values were obtained:
# TRPV4 channel receptor = molecular target: T1, TRPV4 channel receptor (Homo sapiens, UniProt Q9HBA0); test: FLIPR assay using TRPV4 expressing HEK cells; type: cell-based; settings: FLIPR method; read-out: pEC50 values (converted)
# T1 construct: expressed in transfected cells; host or cells: HEK cells
# Excerpt: Other techniques used to measure TRPV4 channel receptor activation in chondrocytes include, but are not limited to: FLIPR assay, measuring a compound's capability to reduce the amount of ADAMTSs produced and/or released in response to a catabolic stimulus by a cell comprising a TRPV4 channel receptor; measuring a compound's capability to reduce the amount of MMPs produced and/or released in response to a catabolic stimulus by a cell comprising a TRPV4 channel receptor; measuring a compound's capability to effect the amount of nitric oxide (NO) produced in response to a catabolic stimulus by a cell comprising a TRPV4 channel receptor; and measuring a compound's capability to attenuate the inhibition of matrix synthesis in response to a catabolic stimulus by a cell comprising a TRPV4 channel receptor.
# (§1) All exemplary compounds of the present invention were assessed using at least one of the biological assays presented above. Compounds presented in the Examples had EC50 values of about 0.0001 μM to 1 μM as measured by Flex Station using bovine articular chondrocytes and pEC50 values between about 6.0 to 9.1 as measured by FLIPR assay using TRPV4 expressing HEK cells.
# TRPV4 channel receptors = molecular target: T2, TRPV4 channel receptors (Bos taurus, UniProt A0A8F4X677); test: Ca2+ influx by Fura-2 fluorescence on FlexStation in bovine articular chondrocytes; type: cell-based
# T2 construct: obtained using this method in bovine articular chondrocytes; endogenous in cells; host or cells: bovine articular chondrocytes
# Excerpt: Ca^2+ influx mediated through TRPV4 channel receptors can be measured using articular chondrocytes from such species as, but not limited to, human, rat, canine, rabbit, monkey, and bovine, using standard techniques in the art such as, but not limited to, Fura-2 (Invitrogen/Molecular Probes, Eugene, Oreg.) fluorescence using a FlexStation (manufactured by Molecular Devices, Sunnyvale, Calif.). Table 1 lists biological data for several representative compounds obtained using this method in bovine articular chondrocytes.
# as §1
# T1 sequence (Q9HBA0 whole entry): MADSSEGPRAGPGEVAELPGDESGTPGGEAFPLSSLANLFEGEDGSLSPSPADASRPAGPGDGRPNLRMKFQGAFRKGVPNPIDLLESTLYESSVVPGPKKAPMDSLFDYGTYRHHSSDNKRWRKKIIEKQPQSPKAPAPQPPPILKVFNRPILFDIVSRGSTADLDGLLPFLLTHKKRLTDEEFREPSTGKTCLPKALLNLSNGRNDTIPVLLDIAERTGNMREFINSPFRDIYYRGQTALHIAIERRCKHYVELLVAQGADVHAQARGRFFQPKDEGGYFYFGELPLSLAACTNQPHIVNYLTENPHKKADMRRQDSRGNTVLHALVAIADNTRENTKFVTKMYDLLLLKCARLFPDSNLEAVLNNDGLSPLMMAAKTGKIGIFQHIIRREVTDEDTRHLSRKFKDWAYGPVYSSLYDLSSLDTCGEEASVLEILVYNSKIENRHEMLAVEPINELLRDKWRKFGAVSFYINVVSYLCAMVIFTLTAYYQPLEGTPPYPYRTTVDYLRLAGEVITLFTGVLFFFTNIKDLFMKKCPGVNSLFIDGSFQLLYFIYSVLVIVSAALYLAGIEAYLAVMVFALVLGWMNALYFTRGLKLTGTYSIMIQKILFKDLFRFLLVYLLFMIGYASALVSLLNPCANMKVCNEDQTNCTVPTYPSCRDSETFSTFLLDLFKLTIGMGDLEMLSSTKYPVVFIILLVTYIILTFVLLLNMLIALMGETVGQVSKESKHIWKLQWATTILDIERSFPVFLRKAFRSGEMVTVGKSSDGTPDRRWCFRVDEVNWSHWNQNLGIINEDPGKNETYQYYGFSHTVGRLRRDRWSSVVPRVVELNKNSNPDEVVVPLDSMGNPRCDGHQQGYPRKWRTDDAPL
# T2 sequence (A0A8F4X677 1-871): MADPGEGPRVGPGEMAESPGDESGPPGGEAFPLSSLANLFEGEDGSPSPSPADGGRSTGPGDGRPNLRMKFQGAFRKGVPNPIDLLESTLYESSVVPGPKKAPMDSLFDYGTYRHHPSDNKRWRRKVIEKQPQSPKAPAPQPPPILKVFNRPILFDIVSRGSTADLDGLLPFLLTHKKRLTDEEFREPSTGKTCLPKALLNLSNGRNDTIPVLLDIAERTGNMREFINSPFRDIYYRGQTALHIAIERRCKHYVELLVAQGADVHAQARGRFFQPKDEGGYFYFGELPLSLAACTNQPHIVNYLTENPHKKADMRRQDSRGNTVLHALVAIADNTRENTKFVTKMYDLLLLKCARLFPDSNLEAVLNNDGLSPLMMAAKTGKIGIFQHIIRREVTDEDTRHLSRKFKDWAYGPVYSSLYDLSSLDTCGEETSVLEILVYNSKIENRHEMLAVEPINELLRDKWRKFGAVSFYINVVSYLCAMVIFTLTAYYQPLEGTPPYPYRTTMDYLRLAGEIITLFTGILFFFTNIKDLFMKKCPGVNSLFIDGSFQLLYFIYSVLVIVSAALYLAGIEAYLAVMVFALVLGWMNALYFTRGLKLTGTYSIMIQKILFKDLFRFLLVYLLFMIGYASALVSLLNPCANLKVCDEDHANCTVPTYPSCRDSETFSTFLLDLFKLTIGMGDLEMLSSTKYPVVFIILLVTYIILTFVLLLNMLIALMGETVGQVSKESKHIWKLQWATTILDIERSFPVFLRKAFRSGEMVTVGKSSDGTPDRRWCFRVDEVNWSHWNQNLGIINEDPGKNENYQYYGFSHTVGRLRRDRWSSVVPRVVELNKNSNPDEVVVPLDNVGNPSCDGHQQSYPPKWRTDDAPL
EC50 (TRPV4 channel receptor) [nM],EC50 (TRPV4 channel receptors) [nM],SMILES
100 to 794,90 to 5010,"CC(C)C[C@H](NC(=O)c1cc2ccccc2s1)C(=O)N1CCN(CCNS(=O)(=O)c2ccc(Cl)cc2Cl)CC1 [Example 1, N-((1S)-1-{[4-(2-{[(2,4-Dichlorophenyl)sulfonyl]amino}ethyl)-1-piperazinyl]carbonyl}-3-methylbutyl)-1-benzothiophene-2-carboxamide]"
10 to 79.4,20 to 89,"CC(C)C[C@H](NC(=O)c1cc2ccccc2s1)C(=O)N1CCN(C(=O)CNS(=O)(=O)c2ccc(Cl)cc2Cl)CC1 [Example 3, N-((1S)-1-{[4-({[(2,4-Dichlorophenyl)sulfonyl]amino}acetyl)-1-piperazinyl]carbonyl}-3-methylbutyl)-1-benzothiophene-2-carboxamide]"
< 7.94,0.1 to 19,"CC(C)C[C@H](NC(=O)c1cc2ccccc2s1)C(=O)N1CCN(C(=O)[C@H](C)NS(=O)(=O)c2ccc(Cl)cc2Cl)CC1 [Example 9, N-((1S)-1-{[4-((2S)-2-{[(2,4-dichlorophenyl)sulfonyl]amino}propanoyl)-1-piperazinyl]carbonyl}-3-methylbutyl)-1-benzothiophene-2-carboxamide]"
